Assay results as given in patent US12180159B2, “Activators of the unfolded protein response” (The Board of Trustees of the University of Illinois, priority 2018, dated 2024).

Columns and labels:
MCF-7 cells = assay: Alamar blue fluorescence 24-hour cell death assay, MCF-7; assay type: cell-based, human; conditions: MCF7, 24 hour incubation, Alamar Blue (FIG. 4)
Experimental: ALAMAR BLUE/RAPTINAL ASSAY: Live cells maintain a reducing environment. The non-fluorescent cell permeable ingredient of Alamar Blue® (resazurin) is taken up by cells. In living cells, it is reduced to the fluorescent compound resorufin. Using a standard curve of cell number versus fluorescence the number of live cells in a test sample can be determined. At high concentrations raptinal kills 100% of cells. The vehicle in which the test compound is dissolved is not toxic. Thus, after subtracting the blank for medium alone, the fluorescence reading for vehicle corresponds to 100% viable cells and the signal for raptinal corresponds to 0% viable cells. […]
ALAMAR BLUE RAPTINAL ASSAYS: Cells were plated at 4,000-10,000 cells/well (96 well plate), usually in 50 μl of medium. […] After 24 hours Alamar Blue reagent was added and fluorescence in the wells was read (BMG PheraStar or Molecular Devices Spectra Max M3 Microplate Reader). % relative death was determined by setting the reading for raptinal-treated cells to 100% dead cells and the reading for vehicle-treated cells to 0% dead cells.
Preparative gram-scale chiral separation of (±)-1 yields enantiopure (R)-1 and (S)-1 with opposite optical rotations (Scheme 5). […] Values were obtained after 24-hour incubation utilizing Alamar blue fluorescence assay normalized to live and death controls (vehicle and raptinal treated). […]

[1] = system: MCF-7 ERα Y537S-luciferase cells; assay: Long-term cell culture experiment, MCF-7Y537S cells; assay type: cell-based, human; conditions: conditions as FIG. 15
[2] = system: sp-XBP1 mRNA in T47D-luciferase cells; assay: Induction of spliced XBP-1 mRNA (qRT-PCR); assay type: cell-based, human; conditions: 100 nM
Experimental: ERα positive T47D-luciferase, human breast cancer cells, were maintained for the indicated times in vehicle (Ctl, Control), 100 nM BHPI or 100 nM (−)-105. At the indicated times RNA was isolated and levels of sp-XBP1 mRNA quantitated by qRT-PCR. (n=3±SEM). […] Increased sp-XBP1 mRNA is a widely used marker for unfolded protein response (UPR) activation.

MCF-7 tumors = assay: MCF-7 orthotopic tumor model; assay type: in vivo, mouse
Experimental: FIG. 39. SERK-F6 eradicates wild-type ERα tumors via hyperactivation of aUPR. a, MCF-7 orthotopic tumors were established in Nu/J ovariectomized mice supplemented with a 60 day E2 pellet (0.36 mg) and grown to ˜400 mm^3 (28 days to establish), randomized, then treated with vehicle daily (n=3), vehicle weekly (n=3), fulv. weekly (5 mg/mouse, s.c., n=6), SERK-F6 daily (10 or 40 mg/kg p.o.). Vehicle arms were averaged. p values: *: p<0.05, **: p<0.01, ***: p<0.001, ****: p<0.0001. Tumor images were taken at the end of the study (day 21) and are representative of all tumors (n=6). b-e, MCF-7 cells were orthotopically bi-laterally grafted and tumors were grown until total tumor burden was ˜ 400 mm^3 prior to daily treatment with vehicle or SERK-F6 (40 mg/kg p.o.). Mice (n=5 per arm) were sacrificed after 3 days (b,c) and 7 days (d,e) and tumors harvested. […] Vinculin (Vin) was used as a loading control. […] Error bars represent S.E.M.
FIG. 40. SERK-F6 is tolerated, reaches biologically relevant concentrations, and crosses the blood-brain barrier in vivo. a, Serum concentrations of SERK-F6 after indicated doses, route of administration, and time. Concentration was determined via LC/MS/MS analysis. […] AUC: Area Under the Curve, Cmax: maximum concentration, t1/2: half-life. c,d, Mice (CD-1) were treated with the indicated doses and times, then sacrificed and their serum and brains collected. Concentrations were determined via LC/MS/MS analysis. […] Treatment arms: vehicle daily (n=3), vehicle weekly (n=3), fulv. weekly (5 mg/mouse, s.c., n=6), SERK-F6 daily (10 or 40 mg/kg p.o.). Vehicle arms were combined. g, Mass of tumors harvested from mice. h, observed murine weight during this MCF-7 study (n=6). i,j, Tumor measurements for MCF-7 bilateral orthotopic model (n=4-5).
To probe the efficacy of SERK-F6 for killing ERα positive tumors, large MCF-7 tumors were grown and then intervened with therapy. […] The mice were then sacrificed prior to complete tumor eradication.

MDA-MB-231 cells = assay: Cell death of MDA-MB-231 cells (annexin V-FITC / PI flow cytometry); assay type: cell-based, human; conditions: 24 hours
Experimental: FIG. 36. Discovery of SERK-F6 (also known as, C(−)-105, (−)-105, (R)-105, (−)-1, or (R)-1), a compound that kills ERα-positive cancer cells. a, Chemical structures of BHPI and racemic compound 1 (i.e. (±)-1), and their cytotoxic activity on T47D breast cancer cells after 24-hour incubations with concentrations as indicated in nM. Cells were stained with annexin V-FITC and PI dyes prior to analysis via flow cytometry. […] Cells were incubated with SERK-F6 or positive control, Raptinal, for 24 hours and then stained with annexin V-FITC and PI dyes and analyzed via flow cytometry. Error bars represent S.E.M of 3 independent replicates. c, IC50 values of SERK-F6 after 24-hour incubation against a panel of cancer cell lines grouped by their reported ERα status. Cell viability was measured by Alamar blue fluorescence and set relative to a vehicle control and a quantitative dead control treated with Raptinal. Error bars represent S.E.M of 3 independent experiments. d, Crystal violet staining of T47D cells after 24-hour incubations with compounds and concentrations as indicated. […] Cell number was determined by MTS.
Through a medicinal chemistry campaign, (±)-1 was discovered to show an unexpected cytotoxic phenotype (FIG. 36A). […] The dose dependent activity of SERK-F6 was determined against a panel of cancer cell lines (FIG. 36C and FIG. 37A) for ERα.

How did the “ability to kill compared with BHPI and 01-15” value (MCF-7 cells) turn out when O=C1Nc2c(C(F)(F)F)cccc2C1(c1ccc(O)cc1)c1ccc(OC(F)(F)F)cc1 (single isomer, unassigned; (-)) [(−)-105, 3-(4-hydroxyphenyl)-3-(4-(trifluoromethoxy)phenyl)-7-(trifluoromethyl)indolin-2-one] was run?
Its value is “superior to BHPI and 01-15”.

And the “effect on MCF-7Y537S cells in long-term experiments” value [1]?
The value was “eradicates”.

What about the “UPR activation, induction of sp-XBP1 mRNA” value [2] of the same compound?
The value was “much stronger UPR hyper-activator and inducer of sp-XBP1 than BHPI”.

What about the “in-vivo UPR markers in tumors” value (MCF-7 tumors; 40 mg/kg p.o., tumors harvested before eradication) of the same compound?
The value was “increases in P-PERK and P-eiF2alpha levels”.

What about the “effect on large established MCF-7 tumors” value (MCF-7 tumors; mouse, in vivo) of the same compound?
The value was “dramatic tumor regressions”.

What about the “effects in ERα negative MDA-MB-231 cells” value (MDA-MB-231 cells) of the same compound?
Its value is “minimal effects”.
